Experimental data from patent US9556222B2, “A-ring epoxidized triterpenoid-based anti-inflammation modulators and methods of use thereof” (priority 2012, dated 2017).

tested on: IFNγ-induced NO production in RAW264.7 mouse macrophages; assay: Nitric oxide production and cell viability protocol used for TX64343 (RAW264.7, Griess, Cell Titer-Glo); assay type: cell-based; settings: slightly different assay procedure: DMEM+10% FBS, 0-30 μM or 0-3 μM dose range, IFNγ 24 h
Protocol: On the next day, cells were pre-treated with DMSO or drug (0-30 μM or 0-3 μM dose range) for 2 hours, and then treated with IFNγ for 24 hours. Nitric Oxide concentration in media was determined using the Griess reagent system (Promega). Cell viability was determined using Cell Titer-Glo (Promega). IC50 values were determined based on the suppression of IFNγ induced Nitric Oxide production.

| Structure (SMILES) | IC50 [nM] |
| --- | --- |
| CNC(=O)CC[C@]12CCC(C)(C)C[C@H]1[C@H]1C(=O)C=C3[C@@]4(C)[C@H]5O[C@@]5(C#N)C(=O)C(C)(C)[C@@H]4CC[C@@]3(C)[C@]1(C)CC2 [TX64343] | 20.1 |

tested on: IFNγ-induced NO production in RAW264.7 mouse macrophages; assay: Suppression of IFNγ-induced NO production in RAW264.7 (Griess, normalized to WST-1 viability); assay type: cell-based; settings: RAW264.7, 2 h pre-treatment (0-200 nM dose range), IFNγ 24 h, normalized to cell viability
Protocol: On the next day, cells were pre-treated with DMSO or drug (0-200 nM dose range) for 2 hours, and then treated with recombinant mouse IFNγ (R&D Systems) for 24 hours. Nitric Oxide concentration in media was determined using the Griess reagent system (Promega). Cell viability was determined using WST-1 reagent (Roche). IC50 values were determined based on the suppression of IFNγ induced Nitric Oxide production normalized to cell viability.

| Structure (SMILES) | IC50 [nM] |
| --- | --- |
| Cc1nnc([C@]23CCC(C)(C)C[C@H]2[C@H]2C(=O)C=C4[C@@]5(C)[C@H]6O[C@@]6(C#N)C(=O)C(C)(C)[C@@H]5CC[C@@]4(C)[C@]2(C)CC3)o1 [TX63947] | 2.5 |
| CCNC(=O)[C@]12CCC(C)(C)C[C@H]1[C@H]1C(=O)C=C3[C@@]4(C)[C@H]5O[C@@]5(C#N)C(=O)C(C)(C)[C@@H]4CC[C@@]3(C)[C@]1(C)CC2 [TX63100] | 23 |
| C[C@@H]1C(=O)[C@]2(C#N)O[C@@H]2[C@]2(C)C3=CC(=O)[C@@H]4[C@@H]5CC(C)(C)CC[C@]5(NC(=O)C(C)(F)F)CC[C@@]4(C)[C@]3(C)CC[C@@H]12 [TX63946] | 0.6 |
| COC(=O)[C@]12CCC(C)(C)C[C@H]1[C@H]1C(=O)C=C3[C@@]4(C)[C@H]5O[C@H]5C(=O)C(C)(C)[C@@H]4CC[C@@]3(C)[C@]1(C)CC2 [TX63211] | > 200 |
| CC1(C)CC[C@]2(CO)CC[C@]3(C)[C@H](C(=O)C=C4[C@@]5(C)[C@H]6O[C@@]6(C#N)C(=O)C(C)(C)[C@@H]5CC[C@]43C)[C@@H]2C1 [TX63537] | 1.5 |
| COC(=O)N[C@]12CCC(C)(C)C[C@H]1[C@H]1C(=O)C=C3[C@@]4(C)[C@H]5O[C@@]5(C#N)C(=O)C(C)(C)[C@@H]4CC[C@@]3(C)[C@]1(C)CC2 [TX63654] | 6.5 |
| COC(=O)[C@]12CCC(C)(C)C[C@H]1[C@H]1C(=O)C=C3[C@@]4(C)[C@H]5O[C@@]5(C#N)C(=O)C(C)(C)[C@@H]4CC[C@@]3(C)[C@]1(C)CC2 [TX63098] | 2.3 |
| CC1(C)CC[C@]2(CO)CC[C@]3(C)[C@H](C(=O)C[C@@H]4[C@@]5(C)[C@H]6O[C@@]6(C#N)C(=O)C(C)(C)[C@@H]5CC[C@]43C)[C@@H]2C1 [TX63966] | 52 |
| COC(=O)[C@]12CCC(C)(C)C[C@H]1[C@H]1C(=O)C=C3[C@]4(C)[C@@H](CC[C@@]3(C)[C@]1(C)CC2)C(C)(C)C(=O)[C@]1(C(N)=O)O[C@@H]14 [TX63315] | > 200 |
| CC1(C)CC[C@]2(C(=O)NCC(F)(F)F)CC[C@]3(C)[C@H](C(=O)C[C@@H]4[C@@]5(C)[C@H]6O[C@@]6(C#N)C(=O)C(C)(C)[C@@H]5CC[C@]43C)[C@@H]2C1 [TX63241] | > 200 |
| COC(=O)[C@]12CCC(C)(C)C[C@H]1[C@H]1C(=O)C=C3[C@@]4(C)[C@H]5O[C@@]5(Br)C(=O)C(C)(C)[C@@H]4CC[C@@]3(C)[C@]1(C)CC2 [TX63392] | > 200 |
| CC[C@]12CCC(C)(C)C[C@H]1[C@H]1C(=O)C=C3[C@@]4(C)[C@H]5O[C@@]5(C#N)C(=O)C(C)(C)[C@@H]4CC[C@@]3(C)[C@]1(C)CC2 [TX63539] | 14 |
| CC1(C)CC[C@]2(C(=O)n3ccnc3)CC[C@]3(C)[C@H](C(=O)C=C4[C@@]5(C)[C@H]6O[C@@]6(C#N)C(=O)C(C)(C)[C@@H]5CC[C@]43C)[C@@H]2C1 [TX63960] | 2.9 |
| COC(=O)[C@]12CCC(C)(C)C[C@H]1[C@H]1C(=O)C[C@@H]3[C@@]4(C)[C@H]5O[C@@]5(C#N)C(=O)C(C)(C)[C@@H]4CC[C@@]3(C)[C@]1(C)CC2 [TX63210] | 44 |
| CC1(C)CC[C@]2(C#N)CC[C@]3(C)[C@H](C(=O)C[C@@H]4[C@@]5(C)[C@H]6O[C@@]6(C#N)C(=O)C(C)(C)[C@@H]5CC[C@]43C)[C@@H]2C1 [TX63967] | 24 |
| CCNC(=O)[C@]12CCC(C)(C)C[C@H]1[C@H]1C(=O)C=C3[C@@]4(C)[C@H]5O[C@@]5(C#N)C(=O)[C@@H](C)[C@@H]4CC[C@@]3(C)[C@]1(C)CC2 [TX63962] | 1.1 |
| CN(C)C(=O)N[C@]12CCC(C)(C)C[C@H]1[C@H]1C(=O)C=C3[C@@]4(C)[C@H]5O[C@@]5(C#N)C(=O)C(C)(C)[C@@H]4CC[C@@]3(C)[C@]1(C)CC2 [TX63924] | 45 |
| CC1(C)CC[C@]2(C(=O)NCC(F)(F)F)CC[C@]3(C)[C@H](C(=O)C=C4[C@@]5(C)[C@H]6O[C@@]6(C#N)C(=O)C(C)(C)[C@@H]5CC[C@]43C)[C@@H]2C1 [TX63158] | 16 |
| COC(=O)[C@]12CCC(C)(C)C[C@H]1[C@H]1C(=O)C=C3[C@]4(C)[C@@H](CC[C@@]3(C)[C@]1(C)CC2)C(C)(C)C(=O)[C@@]1(C#N)O[C@@H]41 [TX63212] | 1.6 |
| CC1(C)CC[C@]2(C(=O)O)CC[C@]3(C)[C@H](C(=O)C=C4[C@@]5(C)[C@H]6O[C@@]6(C#N)C(=O)C(C)(C)[C@@H]5CC[C@]43C)[C@@H]2C1 [TX63160] | 30 |
| CC1(C)CC[C@]2(NC(=O)C(C)(F)F)CC[C@]3(C)[C@H](C(=O)C=C4[C@@]5(C)[C@H]6O[C@@]6(C#N)C(=O)C(C)(C)[C@@H]5CC[C@]43C)[C@@H]2C1 [TX63647] | 15 |
| COC(=O)[C@]12CCC(C)(C)C[C@H]1[C@H]1C(=O)C[C@@H]3[C@@]4(C)[C@H]5O[C@@]5(C#N)C(=O)[C@@H](C)[C@@H]4CC[C@@]3(C)[C@]1(C)CC2 [TX63813] | 6.6 |
